What was measured:
Src (Y416) = test: IB of Src (Y416) phosphorylation in BMMs / osteoclasts; format: cell-based, mouse; conditions: for Src phosphorylation: Kp-10 20 min; for phosphorylation of Src (Y416): indicated dose of Kp-10 for 1 h; for phosphorylation of Src: Kp-10 1 h
Experimental: Fig. 1 Kp-10 /Gpr54 governs osteoclasts formation and bone resorption mainly via suppression of Src phosphorylation. a–d IB analysis of whole cell lysates (WCL) derived from BMMs isolated from eight-week-old wild-type (WT) and Gpr54^−/− mice. BMMs were starved in serum-free α-MEM for 4 h and then treated with 100 ng/mL RANKL for different time (a) and quantification of protein levels (b), incubated with indicated dose of Kp-10 for 1 h (c) and quantification of protein levels (d). e–i BMMs isolated from eight-week-old WT and Gpr54^−/− mice were stimulated with M-CSF (10 ng/ml) and RANKL (50 ng/ml) for 5–7 days. Representative TRAP staining images are shown. Scale bar, 250 µm (e) and the number of osteoclasts/well was counted (f). Phalloidin staining of F-actin ring is shown. Scale bar, 250 µm, 50 µm (g), the area (h) and nuclei numbers (i) per actin ring were counted. j, k BMMs isolated from eight-week-old WT and Gpr54^−/− mice were cultured in vitro on dentin slices, and after incubation with M-CSF (10 ng/ml) and RANKL (50 ng/ml) for 5–7 days, the pits formed by osteoclast absorption activity were scanned by confocal microscopy (x, y, and z sections). Scale bar, 125 µm (j), and pits depth were quantified by confocal microscopy (k). Data represent means ± SEM. P values were determined by two-way ANOVA analysis (b), one-way ANOVA analysis (d, f, k), or two-tailed Student’s t-test (h, i), Representative results were obtained from at least three independent experiments. Source data are provided as a Source Data file.
(§1) Whole-cell proteins were extracted using 1x RIPA buffer (25 mM Tris, pH7.5, 150 mM NaCl, 0.5% Sodium deoxycholate, 1% Triton-X-100) supplemented with protease inhibitors (Complete Mini, Roche) and phosphatase inhibitors (phosphatase inhibitor cocktail set I and II, Calbiochem). Immunoprecipitation and immunoblotting with indicated antibodies were performed as described in Supplementary Table 1. Image Jsoftware (V1.52) was used for quantification analysis. Uncropped and unprocessed blots are presented in the Supplementary Information file.
Supplementary Fig. 1 a, b IB analysis of whole cell lysates (WCL) derived from BMMs isolated from eight-week-old wild-type (WT) and Gpr54 ^-/- mice. BMMs were starved in serum-free α-MEM for 4 hours and then treated with indicated doses of Kp-10 for 1 hour and followed by the addition of 50 ng/mL M-CSF, 100 ng/mL RANKL for another 30 minutes (a) and quantification of protein levels (b). c, d Elisa assay showing Kisspeptins derived from the process of osteoblast or osteoclast differentiation in vitro. Kisspeptins normalization was based on the same number of MSCs, BMMs which were seeded on the plates before differentiation stimulation (c), and serum Kisspeptins from Sham (n=8) and OVX (n=7) mice (d). Representative results were obtained from at least three independent experiments. Error bars are ± SEM. P-values were determined by one-way ANOVA analysis (a) or two-tailed Student’s t-test (b). *P <0.05, ***P <0.001, ****P <0.0001. Representative results were obtained from at least three independent experiments. Source data are provided as a Source Data file.

[1] = system: DUSP18 / GPR54 interaction; test: Co-IP: interaction of DUSP18 with GPR54 in transfected 293T cells; format: cell-based, human; conditions: 293T cells transfected with DUSP18-HA and GPR54-Flag, Kp-10 (10 nM) 20 min
Experimental: Data represent means ± SEM. P values were determined by one-way ANOVA analysis (b, c, e, g, i, k). Representative results were obtained from at least three independent experiments. Source data are provided as a Source Data file.
as §1
Supplementary Fig. 6 a, b IB and quantification of protein levels analysis. […] Error bars are ± SEM. P-values were determined by two-tailed Student’s t-test (b, e) or by one-way ANOVA analysis (h, j). *P <0.05, **P <0.01, ***P <0.001, ****P <0.0001. Representative results were observed from at least three independent experiments. Source data are provided as a Source Data file.

[2] = system: phosphatases co-immunoprecipitated with Gpr54; test: mass spectrometry of anti-Gpr54 IP; format: cell-based, mouse; conditions: RAW264.7 cells, Kp-10 20 min
Experimental: For mass spectrometry (MS) analysis, anti-Gpr54 IP was performed with the whole-cell lysates derived from two 10-cm dishes of RAW264.7 cells with or without Kp-10 treatment for 20 min. The protein complexes after Co-IP were extensively washed with PBS, followed by on-bead digestion. Mass spectra were acquired on a Q-Exactive mass spectrometer (Thermo Scientific, Bremen, Germany). The raw mass spectrometry data were searched against the mouse IPI databases (version 3.86, released on June 28, 2012) using the Proteome Discoverer software suite (Thermo Scientific, San Jose, USA) utilizing a label-free quantification feature. The mass spectrometry proteomics data have been deposited to the ProteomeXchange Consortium via the PRIDE[52] partner repository with the dataset identifier PXD038433.

[3] = system: osteoclast bone resorption; test: pit assay (bone resorption); format: cell-based, mouse; conditions: for bone resorption: dentin slices, 5–7 days
[4] = system: osteoblast differentiation; test: osteoblast differentiation; format: cell-based, mouse
Experimental: For osteoblast differentiation analyses in vitro, we isolated bone marrow mesenchymal stem cells (MSCs) from femurs and tibias of 8-week-old WT and Kiss1^−/−, Gpr54^−/− and Dusp18^−/− mice using a 1 ml syringe with a 26 G needle. MSCs were seeded into 12-well plates at a concentration of 1 × 10^5 cells per well. Cells were incubated with 50 µg/mL ascorbic acid, 10 mmol/L beta-glycerophosphate and 10 nmol/L dexamethasone. The medium was replaced every 2 days during the incubation period. Alkaline phosphatase (ALP) activity was assayed using the assay mixtures containing 0.1 M 2-amino-2-methyl-1-propanol, 1 mM MgCl2, 8 mM p-nitrophenylphosphate disodium (Sigma). For determination of mineralization, cells were fixed with 95% ethanol and stained with AgNO3 by the von Kossa method.

With Kisspeptin-10 [Kp-10] the “Src phosphorylation, 10 nM” value (Src (Y416); 10 nM Kp-10) was “more obviously blocked”, the Src phosphorylation (Src (Y416); Dusp18-depleted BMMs) was “failed to do so” and the “phosphorylation of Src (Y416)” value (Src (Y416); Gpr54 WT osteoclasts/BMMs) was “effectively reduced the phosphorylation of Src (Y416)”. The “phosphorylation of Src (Y416)” value (Src (Y416); Gpr54 knockout osteoclasts/BMMs) was “failed to inhibit Src (Y416) phosphorylation”, the “phosphorylation of Src” value (Src (Y416); Gq/11 KO BMMs) was “failed to have a significant effect” and the “phosphorylation of Src” value (Src (Y416); WT BMMs (Gq/11 experiment)) was “inhibited the phosphorylation of Src”. The Src phosphorylation (Src (Y416); WT pre-osteoclasts/BMMs (Dusp18 experiment)) was “blocked Src phosphorylation”, the “interaction of DUSP18 with GPR54” value [1] was “dose-dependently induced the interaction” and the “phosphatases increasing after Kp-10 stimulation” value [2] was “three increasing phosphatases including DUSP18, PTPN6 and PPP1CA were identified”. The “bone resorption (pit formation, pit depth)” value ([3]; Dusp18 WT osteoclasts) was “bone resorption was suppressed”, the bone resorption ([3]; Gpr54-WT osteoclasts) was “suppressed bone resorption” and the bone resorption ([3]; Gpr54 knockout osteoclasts) was “did not have a significant effect”. The “osteoblast differentiation, low dose” value ([4]; Kp-10 0.01 nM and 0.1 nM) was “effectively suppressed osteoblast differentiation” and the osteoblast differentiation ([4]; upon Kp-10 stimulation, ALP and von Kossa staining) was “dose-dependently suppressed”.
